# Laboratory results published in the NIST ThermoML archive (doi:10.1021/acs.jced.6b00972).
# ± gives the expanded uncertainty stated by the source.
# How the values were obtained:
# [1] = Crystal; DTA
# [2] = Molar enthalpy of transition or fusion; conditions: Crystal; DSC
compound,measurement,setting,value
CCOc1cc(C=O)ccc1O [3-ethoxy-4-hydroxybenzaldehyde],Normal melting temperature,[1],78 ± 1.1 °C
same,Molar enthalpy of transition or fusion,[2],5.64 ± 1.24 kcal/mol
